Patent EP2876156A1 (COMMISSARIAT A L'ENERGIE ATOMIQUE ET AUX ENERGIES …, priority 2013, dated 2015)

Key:
ENZ3 SEQ ID NO:3 = target: T1, ENZ3 SEQ ID NO:3 (Chitinophaga pinensis, UniProt C7PLM6); assay type: biochemical; details: enzyme 0.08 mg/mL, molar ratio α-ketoglutarate/substrate 15/10, Hepes buffer 50 mM pH 7,5, Mohr's salt 1mM, without sodium ascorbate, room temperature, three hours
T1 construct: His6 (hexahistidine, inserted after the initial methionine) (N); made in house; host or cells: E. coli BL21(DE3) plysE
T1 sequence (C7PLM6 1-382): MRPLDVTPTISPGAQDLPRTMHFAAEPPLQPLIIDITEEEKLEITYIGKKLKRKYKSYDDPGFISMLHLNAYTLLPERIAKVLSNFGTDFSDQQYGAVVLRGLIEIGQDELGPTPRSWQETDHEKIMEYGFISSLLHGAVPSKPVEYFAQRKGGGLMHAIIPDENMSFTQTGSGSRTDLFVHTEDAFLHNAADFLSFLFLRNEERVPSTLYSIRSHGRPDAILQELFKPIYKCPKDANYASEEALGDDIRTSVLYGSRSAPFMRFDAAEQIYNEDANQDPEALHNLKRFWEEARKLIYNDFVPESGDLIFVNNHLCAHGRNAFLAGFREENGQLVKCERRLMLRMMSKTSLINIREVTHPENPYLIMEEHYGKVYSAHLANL
Procedure: (§1) Enzymatic reaction medium (0.2 µmole, leq.), borate buffer 0,2M pH 7.7 (80 µL) and Fmoc-Cl solution7.5 mM in acetone (100 µL, 0.75 µmole, 3.75 eq) were hand shaked in a closed 1.50 mL eppendorf for one minute. The aqueous layer was extracted with petroleum ether (3*1 mL) to eliminate excess of Fmoc-Cl. 70 µL of the aqueous phase were withdrawn, diluted with 70 µL of acetonitrile and injected into the HPLC. For substrates with two amine functions, 100 µL of Fmoc-Cl solution 15 mM were used.
(§2) Conditions for HPLC analysis: Atlantis® T3 (3 µm 4.5*150 mm) at 35°C with the gradient 50-86% eluent B (MeCN + 0.1% TFA) and eluent A (H2O + 0.1% TFA) in 20 min at 1 mL/min.
(§3) Enzymes (0.08 mg/mL) were screened against substrates (molar ratio α-ketoglutarate/substrate 15/10) in Hepes buffer 50 mM pH 7,5, with Mohr's salt at 1mM and without sodium ascorbate, at room temperature for three hours. The potential conversions of the substrates were determined by HPLC after Fmoc-Cl derivatization as section III here above.

ENZ2 SEQ ID NO:2 = target: T2, ENZ2 SEQ ID NO:2 (Flavobacterium johnsoniae, UniProt A5FF23); assay type: biochemical; details: enzyme 0.08 mg/mL, molar ratio α-ketoglutarate/substrate 15/10, Hepes buffer 50 mM pH 7,5, Mohr's salt 1mM, without sodium ascorbate, room temperature, three hours
T2 construct: His6 (hexahistidine, inserted after the initial methionine) (N); made in house; host or cells: E. coli BL21(DE3) plysE
T2 sequence (A5FF23 1-370): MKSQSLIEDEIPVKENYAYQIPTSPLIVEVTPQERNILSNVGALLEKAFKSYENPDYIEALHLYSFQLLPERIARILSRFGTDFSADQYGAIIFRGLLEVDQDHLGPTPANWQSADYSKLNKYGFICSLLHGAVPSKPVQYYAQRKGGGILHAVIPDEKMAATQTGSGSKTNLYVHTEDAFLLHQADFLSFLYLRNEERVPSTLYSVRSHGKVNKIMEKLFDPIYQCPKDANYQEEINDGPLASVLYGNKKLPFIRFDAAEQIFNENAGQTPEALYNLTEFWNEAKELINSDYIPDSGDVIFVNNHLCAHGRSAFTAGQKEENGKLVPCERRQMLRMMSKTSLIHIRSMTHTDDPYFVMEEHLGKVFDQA
Procedure: as §1, §2, §3

ENZ4 SEQ ID NO:4 [1] = target: T3, ENZ4 SEQ ID NO:4 (Catenulispora acidiphila, UniProt C7Q942); test: Substrate selectivity screening of hydroxylase (conversion by HPLC after Fmoc-Cl derivatization); assay type: biochemical; details: enzyme 0.08 mg/mL, molar ratio α-ketoglutarate/substrate 15/10, Hepes buffer 50 mM pH 7,5, Mohr's salt 1mM, without sodium ascorbate, room temperature, three hours
T3 construct: His6 (hexahistidine, inserted after the initial methionine) (N); made in house; host or cells: E. coli BL21(DE3) plysE
T3 sequence (C7Q942 1-343): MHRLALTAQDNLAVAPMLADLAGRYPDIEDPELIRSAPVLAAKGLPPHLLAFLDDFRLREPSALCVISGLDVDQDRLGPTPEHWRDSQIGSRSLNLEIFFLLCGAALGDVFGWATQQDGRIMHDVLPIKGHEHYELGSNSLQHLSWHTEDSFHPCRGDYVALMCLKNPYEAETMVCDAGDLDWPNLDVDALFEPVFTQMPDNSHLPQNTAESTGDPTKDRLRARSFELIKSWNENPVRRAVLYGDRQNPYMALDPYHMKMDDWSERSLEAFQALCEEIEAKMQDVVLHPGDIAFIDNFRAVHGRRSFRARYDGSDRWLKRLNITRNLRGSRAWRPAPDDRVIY
Procedure: as §1, §2, §3

ENZ1 SEQ ID N°1 = target: T4, ENZ1 SEQ ID N°1 (Catenulispora acidiphila, UniProt C7QJ42); test: as above; assay type: biochemical; details: enzyme 0.08 mg/mL, molar ratio α-ketoglutarate/substrate 15/10, Hepes buffer 50 mM pH 7,5, Mohr's salt 1mM, without sodium ascorbate, room temperature, three hours
T4 construct: His6 (hexahistidine, inserted after the initial methionine) (N); made in house; host or cells: E. coli BL21(DE3) plysE
T4 sequence (C7QJ42 1-358): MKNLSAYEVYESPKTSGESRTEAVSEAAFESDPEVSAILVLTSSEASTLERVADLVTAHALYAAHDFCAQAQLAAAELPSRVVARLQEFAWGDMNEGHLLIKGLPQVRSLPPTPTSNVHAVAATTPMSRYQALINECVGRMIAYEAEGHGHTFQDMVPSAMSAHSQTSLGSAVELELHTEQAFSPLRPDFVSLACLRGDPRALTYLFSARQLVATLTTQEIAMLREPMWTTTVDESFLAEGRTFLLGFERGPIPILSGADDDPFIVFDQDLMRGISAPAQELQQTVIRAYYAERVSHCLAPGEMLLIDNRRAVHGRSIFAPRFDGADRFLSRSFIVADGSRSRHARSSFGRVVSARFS
Procedure: as §1, §2, §3

ENZ4 SEQ ID NO:4 [2] = target: T3, ENZ4 SEQ ID NO:4; test: Enzymatic hydroxylation of L-ornithine and L-arginine, 10 mL scale, conversion by HPLC; assay type: biochemical; details: ENZ4 0.595 mg/mL, without sodium ascorbate, room temperature, 18h; HPLC after FDAA derivatization (protocol B)
Procedure: 70 µL of the aqueous phase were withdrawn, diluted with 70 µL of acetonitrile and injected into the HPLC. […]
as §2

[3] = tested on: Decarboxyl (or Decarboxy2); test: Enzymatic hydroxylation followed by decarboxylation to hydroxylated diamino alkanes, conversion by HPLC (protocol A); assay type: biochemical, Flavobacterium johnsoniae; Chitinophaga pinensis; details: L-lysine or L-ornithine hydroxylated (part V conditions), then PLP, DTT and Decarboxy1 (or Decarboxy2) added, 18h at 37 °C; HPLC after Fmoc-Cl derivatization
Procedure: The conversions were determined by HPLC after Fmoc-Cl derivatization (protocol A). Atlantis T3 (3µm 4.5*150 mm) at 35°C with the gradient 50-86% eluent B (MeCN + 0.1% TFA) and eluent A (H2O + 0.1% TFA) in 20 min at 1 mL/min […].
L-lysine was converted into (3S)-3-hydroxy-L-lysine by ENZ1 in conditions described in part V.
30 µL pyridoxal 5'-phosphate (PLP) 10 mM, 3 µL dithiothreitol (DTT) 100 mM and Decarboxyl (or Decarboxy2) 50 µL 1.5 mg/mL were then added in the reaction medium. The mixture was stirred (1000 rpm) for 18h at 37 °C.
Lysine was converted into (4R)-4-hydroxy-L-lysine in conditions described in part V 30 µL PLP 10 mM, 3 µL DTT 100 mM and Decarboxyl(or Decarboxy2) 50 µL 1.5 mg/mL were then added in the reaction medium to perform decarboxylation. The mixture was stirred (1000 rpm) for 18h at 37 °C.
The mixture was stirred (1000 rpm) for 18h at 37 °C.
Lysine was converted into (3R,4R)-3,4-dihydroxy-L-lysine in conditions described in part V, by cascade reaction with ENZ1 (SEQ NO:1) and ENZ2 (SEQ NO:2).
The volume of the reaction medium was reduced to 180 µL using a speedvac. 26 µL PLP 10 mM, 2.6 µL DTT 100 mM and Decarboxyl (or Decarboxy2) 50 µL (lysat) were then added to perform decarboxylation. The mixture was stirred (1000 rpm) for 18h at 37 °C.

ENZ6 (SEQ ID NO:10) = target: T5, ENZ6 (SEQ ID NO:10) (Flavobacterium sp., UniProt J3BZS6); test: Hydroxylation capability, HPLC analysis of reaction media after derivatization; assay type: biochemical
T5 construct: His6 (hexahistidine, inserted after the initial methionine) (N); made in house; host or cells: E. coli BL21(DE3) plysE
T5 sequence (J3BZS6 whole entry): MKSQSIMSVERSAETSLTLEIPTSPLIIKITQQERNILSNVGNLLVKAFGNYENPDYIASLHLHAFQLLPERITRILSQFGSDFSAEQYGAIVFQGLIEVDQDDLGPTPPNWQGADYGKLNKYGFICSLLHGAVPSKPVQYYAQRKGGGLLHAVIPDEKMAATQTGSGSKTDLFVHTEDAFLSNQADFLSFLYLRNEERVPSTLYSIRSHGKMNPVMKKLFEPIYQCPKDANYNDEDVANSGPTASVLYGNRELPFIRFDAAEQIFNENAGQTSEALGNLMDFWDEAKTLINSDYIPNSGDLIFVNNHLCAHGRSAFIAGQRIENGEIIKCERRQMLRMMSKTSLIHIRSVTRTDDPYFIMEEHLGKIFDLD
Procedure: as §3
(§4) The hydroxylation capability of two other enzymes, namely ENZ6 (SEQ ID NO:10) and ENZ5 (SEQ ID NO:9) were also assessed. The amino sequence of ENZ6 has 79% of amino acid identity with SEQ ID NO:2 of ENZ2 while the amino sequence of ENZ5 has 72% of amino acid identity with SEQ ID NO:3 of ENZ3. […] As shown in part VI, ENZ6 and ENZ5 provide (4R)-hydroxy-L-lysine from L-lysine similarly to ENZ2 and ENZ3. Thus ENZ6 and ENZ5 are likely to have the same substrate selectivity and provide similar products as ENZ2 and ENZ3.

ENZ5 (SEQ ID NO:9) = target: T6, ENZ5 (SEQ ID NO:9) (Niastella koreensis, UniProt G8T8D0); test: as above; assay type: biochemical
T6 construct: His6 (hexahistidine, inserted after the initial methionine) (N); made in house; host or cells: E. coli BL21(DE3) plysE
T6 sequence (G8T8D0 1-371): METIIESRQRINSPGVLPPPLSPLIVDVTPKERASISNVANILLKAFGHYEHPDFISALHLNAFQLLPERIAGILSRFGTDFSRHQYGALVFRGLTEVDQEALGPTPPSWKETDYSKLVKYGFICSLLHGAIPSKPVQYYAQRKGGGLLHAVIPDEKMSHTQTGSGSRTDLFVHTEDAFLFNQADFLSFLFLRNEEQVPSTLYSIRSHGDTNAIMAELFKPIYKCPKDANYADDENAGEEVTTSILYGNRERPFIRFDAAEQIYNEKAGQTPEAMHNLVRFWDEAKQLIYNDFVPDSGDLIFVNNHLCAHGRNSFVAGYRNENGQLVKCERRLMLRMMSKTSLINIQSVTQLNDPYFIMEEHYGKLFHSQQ
Procedure: as §3, §4

Structure (SMILES): N=C(N)NCCC[C@H](N)C(=O)O [L-arginine]
- potential conversions of the substrates, ENZ3 SEQ ID NO:3 (ENZ3 SEQ ID NO:3): negative
- potential conversions of the substrates, ENZ2 SEQ ID NO:2 (ENZ2 SEQ ID NO:2): negative
- potential conversions of the substrates, ENZ4 SEQ ID NO:4 (ENZ4 SEQ ID NO:4 [1]): positive
- potential conversions of the substrates, ENZ1 SEQ ID N°1 (ENZ1 SEQ ID N°1): negative
- conversion of L-arginine into hydroxylated product (ENZ4 SEQ ID NO:4 [2]): 50%

Structure (SMILES): NCCC[C@H](O)CN [(2S)-1,5-diamino-2-pentanol]
- Conversion [3]: > 95%

Structure (SMILES): NCCC[C@H](N)C(=O)O [L-ornithine]
- hydroxylation capability of ENZ6 (ENZ6 (SEQ ID NO:10)): not able to convert
- hydroxylation capability of ENZ5 (ENZ5 (SEQ ID NO:9)): not able to convert

Structure (SMILES): NCC[C@H](O)CN [(2S)-1,4-diamino-2-butanol]
- Conversion [3]: 50%

Structure (SMILES): NCC[C@@H](O)[C@H](O)CN [(2R,3R)-1,5-diamino-2,3-pentanediol]
- Conversion [3]: > 90%

Structure (SMILES): NCCC(O)CCN [1,5-diamino-3-pentanol]
- Conversion [3]: 100%
